Results reported in PMC4795166, “Design of a MCoTI-Based Cyclotide with Angiotensin (1-7)-Like Activity” (Molecules, 2016).

Biological target: T1, recombinant human MAS1 (Homo sapiens, UniProt P04201)
T1 construct: expressed in transfected cells; host or cells: CHO cells stably transfected with pTEJ-8 vector
T1 sequence (P04201 1-325): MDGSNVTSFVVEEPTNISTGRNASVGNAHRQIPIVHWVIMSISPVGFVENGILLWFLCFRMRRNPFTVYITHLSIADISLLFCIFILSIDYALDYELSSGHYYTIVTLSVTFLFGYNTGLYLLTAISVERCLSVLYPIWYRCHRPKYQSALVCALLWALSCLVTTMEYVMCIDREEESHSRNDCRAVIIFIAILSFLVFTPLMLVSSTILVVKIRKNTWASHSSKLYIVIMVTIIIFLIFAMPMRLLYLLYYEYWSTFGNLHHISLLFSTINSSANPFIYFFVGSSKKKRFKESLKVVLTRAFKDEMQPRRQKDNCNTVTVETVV
Experiment: MAS1 receptor activation, cell-based fluorescence assay of NO release in CHO cells
Settings: absence of antagonist, MAS1 stably transfected CHO cells, 2 h incubation, two experiments
Experimental: Next, we tested the ability of cyclotide MCo-AT1-7 to activate the MAS1 receptor using CHO cells stably transfected with pTEJ-8 vector expressing recombinant human MAS1 in a cell-based fluorescence assay to detect the amount of NO release (Figure 5). […] The activity of the cyclotide MCo-AT1-7 was estimated to be ≈90% of that of peptide AT1-7 at 10 nM in this assay.
CHO cells stably transfected with pTEJ-8 vector expressing recombinant human MAS1 clone are grown to confluency. After washing, cells were incubated for a short time in 700 µL of supplemented Tyrode’s salts containing 10 µM 2-phenyl-4,4,5,5-tetramethylimidazoline-1-oxyl-3-oxide (PTIO), 100 µM 2,6-diaminonaftalene (DAN), and 1 mM L-arginine. When using antagonist for competition assays, cells are exposed to MAS1 antagonist A779 (D-Ala^7-AT 1-7) at 0.1 µM for 15 min before addition of the cyclotides to be tested. Different concentrations of the cyclotides to be analyzed are added to the cell medium and the plates are agitated for 1 min before being placed into the incubator for 2 h. After 2 h, the cellular supernatants are transferred to opaque 96 well plates, and the amount of released NO is measured by fluorescence (λex = 380 nm, λem = 425 nm).

## CC[C@H](C)[C@H](NC(=O)[C@H](Cc1ccc(O)cc1)NC(=O)[C@@H](NC(=O)[C@H](CCCNC(=N)N)NC(=O)[C@@H](N)CC(=O)O)C(C)C)C(=O)N[C@@H](Cc1c[nH]cn1)C(=O)N1CCC[C@H]1C(=O)O [AT1-7, angiotensin (1-7)]
  MAS1 activation: increase of intracellular NO concentration: increase the intracellular concentration of NO in a dose dependent manner
